Values after ≈ are worked out from the molar mass of the structure shown. Where two headings read alike, the source gives them in different places.

Data on twelve molecules can be found in publication PMC9862305 (Plants, 2023).

The target in assay [1] is T1, Acetylcholinesterase (AChE) from Electrophorus electricus (Electrophorus electricus, UniProt O42275).
T1 construct: purchased Sigma-Aldrich type VI-S (catalogue number not given)
The assay is described as follows: biochemical. The procedure:
(§1) The cholinesterase inhibitory potentials of the isolated compounds were evaluated via a spectrophotometric approach, which was adapted by Ellman’s method. […] Enzyme inhibition is a beneficial approach in order to evaluate the pharmacological potential of herbal remedies and pure substances. The inhibition of the AChE and BChE enzymes has been linked to the alleviation of symptoms associated with memory impairment in AD [10]. […] Methoxylation may decrease or increase activity depending on the type of flavonoids (flavones, flavanones, or isoflavones). […] Moreover, the hydrogenation of the double bond next to the carbonyl carbon in the structure of flavanones also decreases their affinity for cholinesterase inhibitory activity. However, there are some exceptions to the aforementioned observation of structure–activity relationship in the literature.
(§2) Acetylcholinesterase (AchE) from Electrophorus electricus (electrical eels, type VI-S, 200–1000 unit/mg), Butyrylcholinesterase from equine serum (lyophilized powder ≥ 500 units/mg protein), substrate acetylthiocholine iodide (ATCI), S-butyrylthiocholine iodide (BTCI), sodium phosphate monobasic, and sodium phosphate dibasic were purchased from Sigma-Aldrich (St. Louis, MO, USA). The coloring agent 5,5-dithio-bis-[2-nitrobenzoic acid] (DTNB), and β-sitosterol were obtained from Acros Organics (Acros Organics, NJ, USA). […] Silica gel (Kieselgel 60, 230–400 mesh atm) was purchased from Merck (Darmstadt, Germany). The solvents were of analytical grade and used as received.
(§3) Each run was carried out in triplicate on three consecutive days. Anti-BChE assays were performed using the same procedures described above but using BChE from equine serum (lyophilized powder ≥ 500 units/mg protein) instead of AChE and BTCI instead of ACTI. The final absorbance of each tested sample was calculated by subtracting the absorbance of their respective blank without enzyme addition. […] Then, the IC50 values of all tested samples and standards were calculated from the curve of the % inhibition versus concentration. (1) % Inhibition=Abs −ve control−Abs test sample/Abs −ve control×100

In assay [2] the target is T2, Butyrylcholinesterase from equine serum (Equus caballus, UniProt P81908).
T2 construct: using BChE from equine serum (lyophilized powder ≥ 500 units/mg protein); purchased Sigma-Aldrich; host or cells: equine serum
T2 sequence (P81908 whole entry): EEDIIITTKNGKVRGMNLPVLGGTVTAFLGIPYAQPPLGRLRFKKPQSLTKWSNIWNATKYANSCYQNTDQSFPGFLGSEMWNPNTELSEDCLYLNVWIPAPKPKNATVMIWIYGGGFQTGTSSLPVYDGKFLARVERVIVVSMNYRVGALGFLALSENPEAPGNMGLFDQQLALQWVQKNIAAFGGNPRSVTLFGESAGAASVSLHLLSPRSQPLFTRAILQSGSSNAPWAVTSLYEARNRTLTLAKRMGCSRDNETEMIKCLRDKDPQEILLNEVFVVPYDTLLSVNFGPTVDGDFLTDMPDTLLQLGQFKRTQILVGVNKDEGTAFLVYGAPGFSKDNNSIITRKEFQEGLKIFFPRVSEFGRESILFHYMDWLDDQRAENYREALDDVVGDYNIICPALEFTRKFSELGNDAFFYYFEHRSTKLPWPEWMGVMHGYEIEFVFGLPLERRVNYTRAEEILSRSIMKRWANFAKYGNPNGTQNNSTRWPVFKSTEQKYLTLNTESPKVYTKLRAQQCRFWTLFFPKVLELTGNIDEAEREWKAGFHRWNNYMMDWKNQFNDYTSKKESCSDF
The assay is described as follows: biochemical. The procedure:
as §1, §2, §3

Assay [3] deals with AChE. The conditions noted are these: cited from earlier work; for IC50 (AChE inhibitory activity): individual compound.
Assay [4] deals with BChE. Conditions: cited from earlier work.
[5] abbreviates: isolated compounds, Table 4, read-out: AChE (IC50).
Setting [6] is: read-out: AChE (IC50) µg/mL (converted).
The mark [7] stands for this setting: AChE (IC50) µM, isolated compounds, Table 4.
Where [8] appears, read: AChE (IC50) µg/mL, isolated compounds, Table 4.
Where [9] appears, read: BChE (IC50) µM, isolated compounds, Table 4.
Setting [10] is: BChE (IC50) µg/mL, isolated compounds, Table 4.
Setting [11] is: luteolin isolated from Globularia meridionalis.

T1 sequence (O42275 24-633): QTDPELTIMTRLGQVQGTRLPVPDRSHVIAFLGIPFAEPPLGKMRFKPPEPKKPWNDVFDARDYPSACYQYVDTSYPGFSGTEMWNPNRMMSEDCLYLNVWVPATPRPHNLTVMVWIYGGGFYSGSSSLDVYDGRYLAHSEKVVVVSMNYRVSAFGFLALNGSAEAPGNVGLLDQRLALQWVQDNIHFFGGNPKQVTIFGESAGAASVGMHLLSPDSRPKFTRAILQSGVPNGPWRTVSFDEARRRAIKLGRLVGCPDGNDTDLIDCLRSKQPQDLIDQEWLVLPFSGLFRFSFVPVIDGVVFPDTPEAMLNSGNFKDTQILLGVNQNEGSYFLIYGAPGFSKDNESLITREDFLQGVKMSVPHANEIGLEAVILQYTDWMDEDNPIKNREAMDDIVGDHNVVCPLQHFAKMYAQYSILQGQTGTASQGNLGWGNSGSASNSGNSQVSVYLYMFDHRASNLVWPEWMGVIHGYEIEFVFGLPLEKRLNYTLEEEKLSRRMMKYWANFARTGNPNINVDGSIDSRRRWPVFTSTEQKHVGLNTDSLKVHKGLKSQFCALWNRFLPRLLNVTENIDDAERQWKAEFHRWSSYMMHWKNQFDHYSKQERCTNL

Regarding `CCCCCCCCCCCCCCCCCCCCOC(=O)CCCCCCCCCCCCCCCCCCC` [Compound 1, Arachidyl arachidate], the IC50 in assay [1] (setting [5]) was 248.6 ± 2.24 µM; in assay [1] (setting [6]) it was 249 µM; in assay [2] (read-out: BChE (IC50) µg/mL) it was over 253 µM.

Regarding `O=c1cc(-c2ccc(O)c(O)c2)oc2cc(O)cc(O)c12` [Compound 2, Luteolin], the IC50 in assay [1] (setting [7]) was 20.5 ± 1.1 µM; in assay [1] (setting [8]) it was 20.5 µM; in assay [2] (setting [9]), 46.2 ± 2.2 µM; in assay [2] (setting [10]) it was 46.2 µM; in assay [3] (luteolin isolated from Rhizoma drynariae, read-out: AChE inhibition potential) it was 17.3 ± 0.23 µM. In addition, the “IC50 for AChE” value in assay [3] (setting [11]) is 25.2 ± 0.4 µg/mL. Besides, the “IC50 for BuChE” value in assay [4] (setting [11]) is 37.2 ± 0.5 µg/mL.

On to `CC[C@H](CC[C@@H](C)[C@H]1CC[C@H]2[C@@H]3CC=C4C[C@@H](O)CC[C@]4(C)[C@H]3CC[C@]12C)C(C)C` [Compound 3, β-sitosterol], for which the IC50 in assay [1] (setting [7]) is 137 ± 8.66 µM; in assay [1] (setting [8]), 137 µM; in assay [2] (setting [9]), 157 ± 7.26 µM; in assay [2] (setting [10]), 157 µM. The “IC50 (AChE inhibitory activity)” value in assay [3] was 55 µg/mL (≈ 133 µM).

`CC[C@H](/C=C/[C@@H](C)[C@H]1CC[C@H]2[C@@H]3CC=C4C[C@@H](O)CC[C@]4(C)[C@H]3CC[C@]12C)C(C)C` [Compound 4, Stigmasterol]: the IC50 (AChE inhibitory activity) in assay [3] is 63 µg/mL (≈ 153 µM).

With `O=C(O)/C=C/c1ccccc1` [Compound 5, Cinnamic acid], the IC50 was 373 ± 16.4 µM in assay [2] (setting [9]) and 373 µM in assay [2] (setting [10]).

On to `O=C(O)C=Cc1ccc(O)cc1` [Compound 6, 4-Hydroxycinnamic acid], for which the IC50 in assay [1] (setting [7]) is 43.4 ± 0.61 µM; in assay [1] (setting [8]) it was 43.4 µM; in assay [2] (setting [9]), 409 ± 14.8 µM; in assay [2] (setting [10]), 409 µM.

With `O=Cc1ccc(CO)o1` [Compound 7], the values for the IC50 in assay [1] (setting [5]), in assay [1] (setting [6]) and in assay [2] (read-out: BChE (IC50) µg/mL) were 158 ± 3.49 µM, 158 µM and over 793 µM, respectively.

Take `COc1ccc(-c2cc(=O)c3c(O)cc(O[C@@H]4O[C@H](CO)[C@H](O)[C@H](O)[C@H]4O)cc3o2)cc1` [acacetin-7-O-beta-D-galactopyranoside]: the IC50 in assay [3] (read-out: IC50) was 6.7 µM.

With `COc1ccc(-c2cc(=O)c3c(O)cc(O)cc3o2)cc1` [acacetin], in assay [3] (read-out: IC50), the IC50 is 65.3 µM.

For the molecule `O=c1cc(-c2ccc(O)cc2)oc2cc(O)cc(O)c12` [apigenin], in assay [3] (read-out: IC50 (AChE)), the IC50 is 34.4 ± 2.41 µM.

With `O=c1cc(-c2ccccc2)oc2cc(O)c(O)c(O)c12` [baicalein], in assay [3] (read-out: IC50 (AChE)), the IC50 is 46 ± 3.44 µM.

Regarding Omifoate A [reference compound], the “IC50 for AChE” value in assay [3] is listed as 6.51 µg/mL. In assay [4], the “IC50 for BChE” value was 9.07 µg/mL.
